Results reported in patent publication US4138491A, “Method for treating diabetes” (Daiichi Seiyaku Co., Ltd., priority 1976, dated 1979).
Blank lines part the entries; values can stand above or below the compound they belong to.

Tests used:
blood insulin [1] = experiment: Insulin releasing action, fed rats; format: in vivo, rat; conditions: 50 mg/kg iv
Protocol: (§1) Among the test animals fed rats were anesthetized by administration of pentobarbital (40 mg/kg, ip), and administered, intravenously with an isotonic sodium chloride solution of Compound A. An aqueous solution of the sample was orally administered to fed mice. In both cases blood was sampled from the tail vein with the passage of time, and the blood insulin was determined by the radioimmunoassay method of Morgen et al [Diabetes, Vol. 12, pp 115 (1963)]. At the same time blood sugar was also determined. […] The amount of insulin released in Table 4 was obtained by determining the difference between the blood insulin level at 5 points (5, 10, 20, 30, 40 minutes) during a 40 minute period after administration of the sample in the case of rats or 3 points (0.5, 1.0, 2.0 hours) during a 2 hour period after administration of the sample in the case of mice and the blood insulin level at 0 minute just before administration of the sample and then by summing up these differences.

blood sugar level [2] = experiment: Blood sugar lowering activity, fasted rat; format: in vivo
Protocol: (§2) The compounds of the present invention were orally administered to normal rats, mice, dogs and hereditary diabetic mice(AYKK-mice), and the blood sugar lowering activity was examined.
(§3) Test animals which were used included animals which had been fasted for 24 hours to achieve an empty stomach, and animals which had been fed to achieve a full stomach without any restriction of diet. A sample aqueous solution or suspension was orally administered, and blood was sampled with the passage of time from the tail vein or the cephalic vein in order to determine the level of blood sugar by the glucose-oxidase method.

blood sugar level [3] = experiment: Blood sugar lowering activity, fed AγKK (AYKK) mouse, hereditary diabetic; format: in vivo; conditions: for Blood Sugar Level (control = 100), 1 Hr / Blood Sugar Level (control = 100), 2 Hrs / Blood Sugar Level (control = 100), 3 Hrs / Blood Sugar Level (control = 100), 5 Hrs: fed AγKK mouse
Protocol: as §2, §3

blood sugar level [4] = experiment: Glucose tolerance test in AYKK mice; format: in vivo, AYKK mouse; conditions: glucose 1 g/kg, sum of increments at 15, 30, 60, 90 min vs control, 100 = no improvement
Protocol: (§4) One index for the treatment of diabetes is to improve this glucose tolerance. The compound of the present invention was orally administered to normal rats, Streptozotocin-induced mildly diabetic rats and AYKK-mice, and thereafter glucose was administered intraperitoneally 1 hour later, and the glucose tolerance was examined. […] Further, a lowering of blood sugar in the glucose tolerance test using normal rats was examined with the passage of time, and the results obtained are given in Table 1 below.
(§5) A sample aqueous solution or suspension was orally administered to the test animals which had been fasted for 24 hours and one hour later glucose was intraperitoneally or subcutaneously administered to the test animals. Thereafter, blood was sampled from the tail vein with the passage of time in order to determine the blood sugar level by the glucose-oxidase method.
*5AYKK-mouse was obtained by mating a yellow mouse having symptoms of […]

blood sugar level [5] = experiment: Blood sugar lowering activity, fed mouse; format: in vivo
Protocol: as §2, §3

blood sugar level [6] = experiment: Glucose tolerance test in normal rats (oral compound, glucose load 1 hour later); format: in vivo, normal rat; conditions: for Glucose Tolerance Improving Activity / Blood Glucose Level, 0 min / Blood Glucose Level, 15 min / Blood Glucose Level, 30 min / Blood Glucose Level, 60 min / Blood Glucose Level, 90 min / Blood Glucose Level, before glucose load (-60 min.): glucose 2 g/kg; for Glucose Tolerance Improving Activity: sum of increments at 15, 30, 60, 90 min vs control, 100 = no improvement
Protocol: as §4, §5

blood sugar level [7] = experiment: Glucose tolerance test in streptozotocin-induced mildly diabetic rats; format: in vivo, rat (Wistar strain); conditions: 20 mg/kg PO; glucose 1 g/kg; sum of increments at 15, 30, 60, 90 min vs control; 100 = no improvement
Protocol: as §4, §5
*4The streptozotocin-induced mildly diabetic rats were produced by […]

blood insulin [8] = experiment: Insulin releasing action, fed mice; format: in vivo, mouse
Protocol: as §1

Acute toxicity (rat) = conditions: in vivo, read-out: Acute Toxicity (rat) ID50
blood sugar level [9] = experiment: Blood sugar lowering activity, fasted beagle; format: in vivo, beagle dog; conditions: 25 mg/kg PO
Protocol: as §2, §3

[10] = test system: blood platelet aggregation induced by collagen in rat platelet rich plasma; experiment: Blood platelet aggregation inhibiting activity (collagen induced, in vitro); format: cell-based; conditions: read-out: Platelet Aggregation Inhibition Activity, ID50
Protocol: It is generally said that blood platelet aggregability is accelerated in a diabetes patient and that this secondarily causes blood vessel disorders. […] Thus, based on this the compounds of the present invention are expected to be useful in preventing and improving the secondary vasular lesions of diabetes mellitus.
Citrated rat blood was centrifuged in order to obtain platelet rich plasma, and to 0.4 ml of this plasma was added 50 μl of sample solution. To the resulting solution was added 50 μl of collagen suspension under stirring, and platelet aggregation reaction was determined according to the method of Born [Nature, Vol. 194, pp. 927 (1962)]. The concentration of the sample (ID50) which inhibits 50% of the aggregation reaction of the control without the test sample added is shown in Table 6 below.

serum lactate level = experiment: Influence on serum lactate level, repeated administration for 4 days; format: in vivo, normal rat
Protocol: The biguanide drugs heretofore used as a treatment for diabetes are said undesirably to cause acidosis due to an increase of serum lactate level when such drugs are repeatedly administered. The compounds of the present invention were repeatedly administered for 4 days to normal rats and the serum lactate level was determined every day to compare such with the administration of phenformine which is one example of a biguanide drug.
Compound A was repeatedly administered for 4 days to normal rats in a dosage of 200 mg/kg/day, and blood was sampled with the passage of time in order to determine the serum lactate level.

Compound: CCCCNC(=O)NS(=O)(=O)c1ccc(C)cc1 [Tolbutamide, reference compound]
- Blood Sugar Level (blood insulin [1]; after 90 minutes, control = 100): 56%
- Amount of Insulin Released (blood insulin [1]; sum of differences at 5, 10, 20, 30, 40 min): 189±26 μunit/ml
- Blood Sugar Level (control = 100), 1 Hr (blood sugar level [2]; 10 mg/kg PO): 96%
- Blood Sugar Level (control = 100), 2 Hrs (blood sugar level [2]; 10 mg/kg PO): 89%
- Blood Sugar Level (control = 100), 3 Hrs (blood sugar level [2]; 10 mg/kg PO): 92%
- Blood Sugar Level (control = 100), 5 Hrs (blood sugar level [2]; 10 mg/kg PO): 91%
- Blood Sugar Level (control = 100), 1 Hr (blood sugar level [2]; 25 mg/kg PO): 90%
- Blood Sugar Level (control = 100), 2 Hrs (blood sugar level [2]; 25 mg/kg PO): 80%
- Blood Sugar Level (control = 100), 3 Hrs (blood sugar level [2]; 25 mg/kg PO): 76%
- Blood Sugar Level (control = 100), 5 Hrs (blood sugar level [2]; 25 mg/kg PO): 82%
- Blood Sugar Level (control = 100), 1 Hr (blood sugar level [3]; 50 mg/kg PO): 94%
- Blood Sugar Level (control = 100), 2 Hrs (blood sugar level [3]; 50 mg/kg PO): 86%
- Blood Sugar Level (control = 100), 3 Hrs (blood sugar level [3]; 50 mg/kg PO): 86%
- Blood Sugar Level (control = 100), 5 Hrs (blood sugar level [3]; 50 mg/kg PO): 92%
- effectiveness on AYKK-mice (blood sugar lowering) (blood sugar level [3]; oral, AYKK-mice, in words): uneffective
- Glucose Tolerance Improving Activity (blood sugar level [4]; 50 mg/kg PO): 69.6%
- Blood Sugar Level (control = 100), 1 Hr (blood sugar level [5]; 50 mg/kg PO): 95%
- Blood Sugar Level (control = 100), 2 Hrs (blood sugar level [5]; 50 mg/kg PO): 92%
- Blood Sugar Level (control = 100), 3 Hrs (blood sugar level [5]; 50 mg/kg PO): 74%
- Blood Sugar Level (control = 100), 5 Hrs (blood sugar level [5]; 50 mg/kg PO): 96%
- Glucose Tolerance Improving Activity (blood sugar level [6]; 20 mg/kg PO): 64.5%
- Blood Glucose Level, 0 min (blood sugar level [6]; 20 mg/kg): 79 ± 2 mg/dL
- Blood Glucose Level, 15 min (blood sugar level [6]; 20 mg/kg): 121 ± 5 mg/dL
- Blood Glucose Level, 30 min (blood sugar level [6]; 20 mg/kg): 114 ± 5 mg/dL
- Blood Glucose Level, 60 min (blood sugar level [6]; 20 mg/kg): 98 ± 5 mg/dL
- Blood Glucose Level, 90 min (blood sugar level [6]; 20 mg/kg): 90 ± 4 mg/dL
- Blood Glucose Level, before glucose load (-60 min.) (blood sugar level [6]; 20 mg/kg): 80 ± 2 mg/dL
- Glucose Tolerance Improving Activity (blood sugar level [7]): 67.4%
- Blood Sugar Level (blood insulin [8]; fed mice, 50 mg/kg po, after 2 hours, control = 100): 95.7%
- Amount of Insulin Released (blood insulin [8]; fed mice, 50 mg/kg po, sum of differences at 0.5, 1.0, 2.0 hours): -2.2±3.3 μunit/ml
- insulin releasing action in mice (blood insulin [8]; mice, in words): little action on insulin release

Compound: c1ccc(C(CC2=NCCN2)c2ccccn2)cc1 (stereo not shown) [Compound B, 2-[2-phenyl-2-(2-pyridyl)]ethylimidazoline]
- LD50 (Acute toxicity (rat)): 867 mg/kg
- Blood Sugar Level (control = 100), 1 Hr (blood sugar level [9]; 1 h): 76%
- Blood Sugar Level (control = 100), 2 Hrs (blood sugar level [9]; 2 h): 58%
- Blood Sugar Level (control = 100), 3 Hrs (blood sugar level [9]; 3 h): 70%
- Blood Sugar Level (control = 100), 5 Hrs (blood sugar level [9]; 5 h): 71%
- Blood Sugar Level (control = 100), 1 Hr (blood sugar level [2]; 10 mg/kg PO): 71%
- Blood Sugar Level (control = 100), 2 Hrs (blood sugar level [2]; 10 mg/kg PO): 67%
- Blood Sugar Level (control = 100), 3 Hrs (blood sugar level [2]; 10 mg/kg PO): 58%
- Blood Sugar Level (control = 100), 5 Hrs (blood sugar level [2]; 10 mg/kg PO): 73%
- Blood Sugar Level (control = 100), 1 Hr (blood sugar level [2]; 25 mg/kg PO): 83%
- Blood Sugar Level (control = 100), 2 Hrs (blood sugar level [2]; 25 mg/kg PO): 68%
- Blood Sugar Level (control = 100), 3 Hrs (blood sugar level [2]; 25 mg/kg PO): 68%
- Blood Sugar Level (control = 100), 5 Hrs (blood sugar level [2]; 25 mg/kg PO): 76%
- Blood Sugar Level (control = 100), 1 Hr (blood sugar level [3]; 25 mg/kg PO): 77%
- Blood Sugar Level (control = 100), 2 Hrs (blood sugar level [3]; 25 mg/kg PO): 75%
- Blood Sugar Level (control = 100), 3 Hrs (blood sugar level [3]; 25 mg/kg PO): 72%
- Blood Sugar Level (control = 100), 5 Hrs (blood sugar level [3]; 25 mg/kg PO): 78%
- IC50 [10]: 300 µM
- Glucose Tolerance Improving Activity (blood sugar level [4]; 25 mg/kg PO): 62.7%
- Blood Sugar Level (control = 100), 1 Hr (blood sugar level [5]; 25 mg/kg PO): 77%
- Blood Sugar Level (control = 100), 2 Hrs (blood sugar level [5]; 25 mg/kg PO): 68%
- Blood Sugar Level (control = 100), 3 Hrs (blood sugar level [5]; 25 mg/kg PO): 78%
- Blood Sugar Level (control = 100), 5 Hrs (blood sugar level [5]; 25 mg/kg PO): 86%
- Glucose Tolerance Improving Activity (blood sugar level [6]; 10 mg/kg PO): 22.0%
- Blood Glucose Level, 0 min (blood sugar level [6]; 10 mg/kg): 74 ± 3 mg/dL
- Blood Glucose Level, 15 min (blood sugar level [6]; 10 mg/kg): 91 ± 9 mg/dL
- Blood Glucose Level, 30 min (blood sugar level [6]; 10 mg/kg): 91 ± 5 mg/dL
- Blood Glucose Level, 60 min (blood sugar level [6]; 10 mg/kg): 79 ± 4 mg/dL
- Blood Glucose Level, 90 min (blood sugar level [6]; 10 mg/kg): 68 ± 5 mg/dL
- Blood Glucose Level, before glucose load (-60 min.) (blood sugar level [6]; 10 mg/kg): 90 ± 2 mg/dL
- blood sugar level maintained after glucose load (blood sugar level [6]; normal rats, Table 1, in words): maintains the blood sugar level in the range of the fasting blood sugar level
- rise in blood sugar level due to the glucose load (blood sugar level [6]; normal rats, Table 1, in words): scarcely any rise in blood sugar level

- Serum Lactate Level, 0 Day (serum lactate level; 0 Day, Compound A 200 mg/kg/day (phenformin dose not given)): 1.061±0.099 μ mol/ml
- Serum Lactate Level, After 1 Day (serum lactate level; After 1 Day, Compound A 200 mg/kg/day (phenformin dose not given)): 2.086±0.066 μ mol/ml
- Serum Lactate Level, After 4 Days (serum lactate level; After 4 Days, Compound A 200 mg/kg/day (phenformin dose not given)): 3.009±0.641 μ mol/ml
Compound: [H]/N=C(/N)N/C(=N/[H])NCCc1ccccc1 [Phenformin]
- increase in serum lactate level (serum lactate level; repeated administration for 4 days, normal rats, in words): remarkable increase in serum lactate level
